In US12071437B1, “Pyrazolo[1,5-a]pyrido[4,3-e]pyrimidine-2-carboxylic acids as CK2 inhibitors” (KING FAISAL UNIVERSITY, priority 2024, dated 2024) one finds IC50 data, which are given here for 1 compound.

Test [1] has as its system HL60 (leukemia) cancer cells. Put plainly: In vitro cytotoxic activity MTT assay, HL60. It counts as cell-based. The note with it: Homo sapiens, HL-60, 96 hours exposure, 50% inhibition of cell proliferation, read-out: Cytotoxicity activity IC50, HL60 (leukemia). On the procedure: (§1) Compounds 1-16 were screened for their in vitro cytotoxic activity utilizing a 3-(4,5-dimethyl-thiazol-2-yl)-2,5-diphenyltetrazolium bromide (MTT) assay against selected cancer human cell lines consisting of PC3 (prostate), HCT116 (colon), A375 (melanoma), H1299 (lung), MIAPaCa-2 (pancreas), HL60 (leukemia), MCF7 (breast), MDA-MB-231 (breast) (T. Mosmann, J. Immunol. Meth., 1983, 65, 55-63). The cells were cultured at 37° C. in RMPI1640 medium supplemented with 10% fetal bovine serum, 50 IU/mL penicillin, and 50 μg/mL streptomycin in a 5% CO2 incubator. All cells were sub-cultured 3 times/week by trypsinisation. Viable cells were seeded and allowed to adhere for 12 hours before a test drug was added in 96-well plates at an initial density of 1.0×10^5 cells/mL. Tumor cell lines were separately exposed to various concentrations of the tested compounds followed by incubation at a temperature of 37° C. during 96 hours inside a medium of fresh RMPI1640. Cells were subsequently incubated at 37° ° C. using MTT at 0.5 mg/mL during 4 hours. After removal of supernatant, formazan crystals were dissolved in isopropanol and the optical density was measured at 570 nm. CX-4945 was used as a positive control.

Test [2] has as its system A375 (melanoma) cancer cells. Put plainly: In vitro cytotoxic activity MTT assay, A375. It counts as cell-based. The note with it: Homo sapiens, A-375, 96 hours exposure, 50% inhibition of cell proliferation, read-out: Cytotoxicity activity IC50, A375 (melanoma). How it is done:
as §1

The subject of test [3] is MDA-MB-231 (breast) cancer cells. As to the kind of experiment: In vitro cytotoxic activity MTT assay, MDA-MB-231. Format: cell-based. The note with it: Homo sapiens; MDA-MB-231 cells, 96 hours exposure, 50% inhibition of cell proliferation; read-out: Cytotoxicity activity IC50, MDA-MB-231 (breast). How it is done: as §1
In general terms: Tetrazolium assays rely on reduction of a dye to a coloured formazan, in cell work by metabolically active cells.

Test [4] has as its system PC3 (prostate) cancer cells. Put plainly: In vitro cytotoxic activity MTT assay, PC3. Format: cell-based. The settings on record: Homo sapiens, PC-3, 96 hours exposure, 50% inhibition of cell proliferation, read-out: Cytotoxicity activity IC50, PC3 (prostate). How it is done: as §1
Test [5] deals with H1299 (lung) cancer cells. As to the kind of experiment: In vitro cytotoxic activity MTT assay, H1299. It counts as cell-based. The settings on record: Homo sapiens, NCI-H1299, 96 hours exposure, 50% inhibition of cell proliferation, read-out: Cytotoxicity activity IC50, H1299 (lung). How it is done: as §1
The test system of test [6] is MIAPaCa-2 (pancreas) cancer cells. As to the kind of experiment: In vitro cytotoxic activity MTT assay, MIAPaCa-2. The note with it: Homo sapiens, MIA PaCa-2; MIAPaCa-2 cells, 96 hours exposure, 50% inhibition of cell proliferation; read-out: Cytotoxicity activity IC50, MIAPaCa-2 (pancreas). It counts as cell-based. On the procedure: as §1
Test [7] relates to HCT116 (colon) cancer cells. Put plainly: In vitro cytotoxic activity MTT assay, HCT116. Format: cell-based. The settings on record: Homo sapiens, HCT-116, 96 hours exposure, 50% inhibition of cell proliferation, read-out: Cytotoxicity activity IC50, HCT116 (colon). How it is done: as §1
The test system of test [8] is MCF7 (breast) cancer cells. Put plainly: In vitro cytotoxic activity MTT assay, MCF7. It counts as cell-based. The settings on record: Homo sapiens, 96 hours exposure, 50% inhibition of cell proliferation, read-out: Cytotoxicity activity IC50, MCF7 (breast). On the procedure: as §1
In test [9] the target is T1, recombinant human CK2 (RRββ-holoenzyme) (Homo sapiens, UniProt P68400).
T1 construct: purchased Millipore
T1 sequence (P68400 whole entry): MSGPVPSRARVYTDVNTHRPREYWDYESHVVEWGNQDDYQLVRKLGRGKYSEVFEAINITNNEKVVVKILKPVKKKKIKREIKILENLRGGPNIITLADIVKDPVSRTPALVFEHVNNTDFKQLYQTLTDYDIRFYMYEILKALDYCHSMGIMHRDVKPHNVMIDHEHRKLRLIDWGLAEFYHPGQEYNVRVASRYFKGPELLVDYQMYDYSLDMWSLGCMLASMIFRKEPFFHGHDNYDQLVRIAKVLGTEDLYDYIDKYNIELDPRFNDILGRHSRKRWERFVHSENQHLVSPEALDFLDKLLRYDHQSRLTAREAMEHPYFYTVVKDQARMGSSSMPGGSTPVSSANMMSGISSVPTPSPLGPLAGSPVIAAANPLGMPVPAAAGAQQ
T1 sequence (P67870 whole entry partner): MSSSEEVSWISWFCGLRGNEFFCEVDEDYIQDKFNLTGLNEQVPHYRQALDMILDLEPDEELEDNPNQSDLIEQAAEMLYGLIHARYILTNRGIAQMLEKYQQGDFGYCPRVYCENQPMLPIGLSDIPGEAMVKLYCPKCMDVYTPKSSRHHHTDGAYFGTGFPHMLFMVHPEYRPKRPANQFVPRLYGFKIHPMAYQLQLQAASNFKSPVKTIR
As to the kind of experiment: CK2 Kinase Assay (33P-ATP, substrate peptide RRRDDDSDDD). The note with it: final ATP 15 μM, 10 min at 30° C., read-out: protein kinase CK2 inhibition IC50. It counts as biochemical. How it is done:
CK2 Kinase Assay was conducted using the protocol as described in Pierre F. et al; J. Med. Chem. 2011, 54, 635-654. The tested compounds in aqueous solution were added at a volume of 10 μL to a reaction mixture comprising 10 μL of assay dilution buffer (ADB; 20 mM MOPS, pH 7.2, 25 mM β-glycerol phosphate, 5 mM EGTA, 1 mM sodium orthovanadate, and 1 mM dithiothreitol), 10 μL of substrate peptide (RRRDDDSDDD, dissolved in ADB at a concentration of 1 mM), 10 μL of recombinant human CK2 (RRββ-holoenzyme, 25 ng dissolved in ADB; Millipore). Reactions were initiated by the addition of 10 μL of ATP solution (90% 75 mMMgCl2, 75 μM ATP (final ATP concentration: 15 μM) dissolved in ADB; 10% [γ-33P] ATP (stock 1 mCi/100 μL; 3000 Ci/mmol (Perkin-Elmer) and maintained for 10 min at 30° C. The reactions were quenched with 100 μL of 0.75% phosphoric acid and then transferred to and filtered through a phosphor cellulose filter plate (Millipore). After washing each well five times with 0.75% phosphoric acid, the plate was dried under vacuum for 5 min and, following the addition of 15 μL of scintillation fluid to each well, the residual radioactivity was measured using a Wallac […]. The IC50 values were derived from eight concentrations of test inhibitors.

The structures appear in SMILES notation.

For orientation: IC50 means the point on the concentration scale where inhibition reaches its midpoint.

For `O=C(O)c1cc2nc(Nc3cccc(Cl)c3)c3ccncc3n2n1` [Compound 1, 5-((3-Chlorophenyl)Amino)Pyrazolo[1,5-a]Pyrido[4,3-e]Pyrimidine-2-Carboxylic Acid], the IC50 came out at 3.2 µM in test [1]; 4.5 µM in test [2]; 4.8 µM in test [3]; 1700 nM in test [4]; 1900 nM in test [5]; 1300 nM in test [6]. Moreover, the IC50 in test [7] is 1600 nM; in test [8], 5.4 µM; in test [9], 72 nM.
